From the supplement of paper PMC11061612 come the findings set out here.

Holding throughout (experiment): combination Emax (second highest fraction inhibited in the dose matrix, 72 h); higher = more inhibition; extreme values may be limits of the assay
Test [1] concerns 23132-87 (Gastric Carcinoma). The method, boiled down: (§1)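 Bliss excess equals the observed combination effect minus the expected value EA + EB − EA·EB, where EA and EB are the effects of each agent alone. Combination Emax is the second-highest inhibition within the matrix. Inhibition was scaled from CellTiter-Glo 2.0 luminescence, with 0 set by vehicle wells and 1 by blank wells, after 72 hours of two-drug dosing of cells plated in 1536-well plates.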

Test [2] has as its system A2058 (Melanoma). The method, boiled down:
as §1

Test [3] relates to CAL-62 (Thyroid Gland Carcinoma). The method, boiled down: as §1
Test [4] has as its system COLO-680N (Esophageal Squamous Cell Carcinoma). The method, boiled down:
as §1

Test [5] concerns FADU (Head and Neck Carcinoma). The method, boiled down: as §1
In test [6] the test system is GB-1 (Glioblastoma). The method, boiled down: as §1
Test [7] concerns HSC-39 (Gastric Carcinoma). The method, boiled down:
as §1

The subject of test [8] is KE-37 (T-Lymphoblastic Leukemia). The method, boiled down:
as §1

Test [9] deals with L-1236 (Hodgkin's Lymphoma). The method, boiled down:
as §1

In test [10] the test system is LN-229 (Glioblastoma). The method, boiled down:
as §1

In test [11] the test system is MFE-280 (Endometrial Carcinoma). The method, boiled down: as §1
The subject of test [12] is NCI-H23 (Lung Adenocarcinoma). The method, boiled down:
as §1

The subject of test [13] is NCI-H2342 (Lung Adenocarcinoma). The method, boiled down:
as §1

For test [14], the system named is PC-3_[JPC-3] (Lung Adenocarcinoma). The method, boiled down:
as §1

In test [15] the test system is REH (B-Lymphoblastic Leukemia). The method, boiled down:
as §1

Test [16] relates to RERF-GC-1B (Gastric Carcinoma). The method, boiled down: as §1
Test [17] relates to SF268 (Low Grade Glioma). The method, boiled down: as §1
In test [18] the test system is SU-DHL-10 (B-Cell Non-Hodgkin's Lymphoma). The method, boiled down:
as §1

Test [19] concerns TE-8 (Esophageal Squamous Cell Carcinoma). The method, boiled down:
as §1

The test system of test [20] is WM278 (Melanoma). The method, boiled down:
as §1

For `Cc1c2c(nn1C)CSCc1cc(n(C)n1)CSc1cc(c3ccccc3c1)OCCCc1c(C(=O)O)n(C)c3c-2c(Cl)ccc13` [AZD5991] + Cn1cnc2c(F)c(Nc3ccc(Br)cc3Cl)c(C(=O)NOCCO)cc21 [Selumetinib] (first compound max 1 µM, 7x7, partner max 3 µM), the “combination Emax” value in test [1] amounted to 0.903; in test [2], 0.991; in test [3] it was 0.354; in test [4] it was 0.236; in [5], 1; in test [6], 0.174. Further, the “combination Emax” value was 1 in test [7]; 0.947 in test [8]; 0.297 in test [9]; 0.428 in [10]; 0.278 in test [11]; 0.934 in test [12]. Besides, the “combination Emax” value was found to be 0.341 in test [13]; 0.269 in test [14]; 0.732 in [15]; 0.998 in test [16]; 0.269 in test [17]; 1 in [18]. In addition, the “combination Emax” value in test [19] was 0.415; in test [20] it was 0.648.

Regarding `C[C@@H]1COCCN1c1cc(C2([S@](C)(=N)=O)CC2)nc(-c2ccnc3[nH]ccc23)n1` [AZD6738] + O=C(c1cc(Cc2n[nH]c(=O)c3ccccc23)ccc1F)N1CCN(C(=O)C2CC2)CC1 [Olaparib] (first compound max 10 µM, 7x7, partner max 10 µM), the “combination Emax” value in test [1] amounted to 0.768; in test [2] it was 0.205; in test [3] it was 0.899; in test [4], 0.392; in test [5], 0.775; in test [6] it was 0.478. The “combination Emax” value in test [7] was found to be 1; in [8], 1; in [9] it was 0.583; in test [10], 0.539; in [11] it was 0.403; in [12], 0.753. In addition, the “combination Emax” value in test [13] stood at 0.208; in test [14] it was 0.359; in [15], 0.917; in test [16] it was 0.442; in test [17] it was 0.407; in test [18] it was 0.944. In addition, the “combination Emax” value in test [19] stood at 0.757; in test [20], 0.233.

Take `Cc1cc2ncnn2cc1Nc1ncc2c(n1)n(C1CCOCC1)c(=O)n2C` [AZD7648] + C=CCn1c(=O)c2cnc(Nc3ccc(N4CCN(C)CC4)cc3)nc2n1-c1cccc(C(C)(C)O)n1 [AZD1775] (first compound max 10 µM, partner max 1 µM): the “combination Emax” value in test [1] came out at 0.659; in test [2], 0.24; in [3], 0.69; in [4] it was 0.353; in [5], 0.546; in test [6], 0.439. The “combination Emax” value in test [7] is 0.936; in [8], 1; in test [9], 0.767; in test [10], 0.35; in [11], 0.355; in test [12] it was 0.786. The “combination Emax” value in test [13] worked out at 0.255; in test [14], 0.483; in test [15], 0.848; in test [16], 0.788; in [17] it was 0.344; in [18], 0.978. Moreover, the “combination Emax” value was 0.814 in test [19] and 0.254 in [20].
